Test results: US20230391761A1, “S[…]-ALANINATE DERIVATIVES” (BAYER AKTIENGESELLSCHAFT, priority 2021, published 2023)

Assay: Solubility in Citrate Buffer pH 4
Conditions: 25 °C, pH 4, aqueous buffer, thermodynamic from solid
Method: 25 mg compound are placed in 2 ml solvent. […] Thereafter, the solution or suspension is filtered and the remaining solution is analyzed via HPLC. The solubility is determined by comparison of the total area of the substance peak to a calibration curve (external standard).
Thereafter, the solution was centrifuged and analyzed via HPLC. The solubility was determined by comparison of the total area of the substance peak to a calibration curve (external standard). The measurements were conducted in triplicates.

Structure (SMILES): CCc1c(N2CC[C@H](O)C2=O)cccc1S(=O)(=O)N[C@@H](CNC(=O)c1ccc(Cl)s1)C(=O)OCCc1nccn1C.Cl [Example 2, 2-(1-Methyl-1H-imidazol-2-yl)ethyl 3-[(5-chlorothiophene-2-carbonyl)amino]-N-{2-ethyl-3-[(3S)-3-hydroxy-2-oxopyrrolidin-1-yl]benzene-1-sulfonyl}-S-alaninate hydrochloride]
- solubility at 24 h: > 500 mg/mL
